In patent US8142759B2, “Glyco-molecular imaging method for grade classification of liver fibrosis and its glyco-molecular imaging agent thereof” (Institute of Nuclear Energy Research, priority 2007, dated 2012):

Assay: Storage stability at room temperature
Assay type: physicochemical

| storage time at room temperature (air/water stability) | storage stability at room temperature (water dissolution) | Structure (SMILES) |
| --- | --- | --- |
| one | – | O=C(CN(CCSC(c1ccccc1)(c1ccccc1)c1ccccc1)CC(=O)ON1C(=O)CCC1=O)NCCSC(c1ccccc1)(c1ccccc1)c1ccccc1 [SOCTA, succinimidyl-3,6-diaza-5-oxo-3-[2-((triphenyl-methyl)thio)ethyl]-8-[(triphenylmethyl)-thio]octanoate] |
| – | much unstable | O=C(O)CN(CCN1CC(=O)OC(=O)C1)CCN1CC(=O)OC(=O)C1 [DTPA anhydride] |
